Laboratory results: patent US7235557B2, “Compounds and their uses” (MGI GP, Inc., priority 2000, dated 2007)
Values joined by “and” are separate entries in the source; they are usually repeats but may differ in a detail not shown here. Identical values can stand only once. Like-named read-outs stand apart in the source and are kept apart here.

Key:
[1] = target: T1, purified recombinant human PARP (Homo sapiens, UniProt P09874); experiment: PARP enzyme assay (IC50); type: biochemical; conditions: approximate IC50 values, [3H]NAD
T1 construct: purchased Trevigan (Gaithersburg, Md.)
Method: The reaction is initiated by adding enzyme and incubating the mixture at 25° C. After 2 minutes of incubation, the reaction is terminated by adding 500 microliters of ice cold 30% (w/v) trichloroacetic acid. The precipitate formed is transferred onto a glass fiber filter Packard Unifilter-GF/C) and washed three times with 70% ethanol. After the filter is dried, the radioactivity is determined by scintillation counting.

[2] = tested on: infarct size caused by ischemia and reperfusion of the heart; conditions: rabbits, cited from earlier work
[3] = tested on: MSU crystal induced neutrophil migration; experiment: MSU crystal-induced neutrophil recruitment (peritonitis, gout model); type: in vivo, Swiss albino mice
Method: Male outbread Swiss albino mice (20–22 g body weight) were purchased from Banton and Kingsman (T.O. stain; Hull, Humberside) and maintained on a standard chow pellet diet with tap water ad libitum and a 12:00 h light/dark cycle. All animals were housed for 1 week prior to experimentation to allow body weight to reach 28–30 g.
1,11b-dihydrobenzopyrano[4,3,2-de]isoquinolin-1-one, as an example PARP inhibitor, was dissolved in 100% DMSO at room temperature at a concentration of 45 mg in 2 ml. The compound was then injected into the peritoneal cavity, so as each mouse received a single dose corresponding to 45 mg/2 ml/kg (e.g. 60 μl for a mouse of 30 g). Control mice received DMSO at 2 ml/kg i.p. A third group of mice which were left untreated were added to control for potential effects of the vehicle. The study involved therefore, the following three groups: group A, untreated mice, n=6, group B, DMSO-treated mice, n=8, and group C, mice treated with 1,11b-dihydrobenzopyrano[4,3,2-de]isoquinolin-1-one, n=8.
MSU crystal-induced neutrophil recruitment was tested as follows. In all cases, mice were treated 1 h after the treatment noted above, with MSU crystals. A homogenous suspension of MSU crystals was obtained by a 30 min rotation. Peritonitis was induced by injection of 3 mg MSU crystals in 0.5 ml PBS (0.1 M, pH 7.4), and the recruitment of neutrophils into the cavity evaluated at the 6 h time point (Getting et al., 1997, J. Pharmacol. Exp. Ther. 283: 123–130). […]
An aliquot (100 μl) of the lavage fluid was then diluted 1:10 in Turk's solution (0.01% crystal violet in 3% acetic acid). The samples were then vortexed and 10 μl of the stained cell solution were placed in a Neubauer haematocymometer and neutrophils numbers counted using a light microscope (Olympus B061). […]
Data are shown for single mice, and also shown as mean±S.E. of (n) mice per group. Statistical differences were determined by ANOVA, plus Bonferroni test A P value<0.05 was taken as significant.

PARP = PARP (Homo sapiens, UniProt P09874); conditions: read-out: IC50 for inhibiting PARP; reported by Suto et al.; cited from earlier work
focal cerebral ischemia = experiment: Focal cerebral ischemia (MCA cauterization with temporary bilateral CCA occlusion), infarct volume; type: in vivo, male Long-Evans rats; conditions: 24 h, mean±SD
Method: Focal cerebral ischemia is produced by cauterization of the right distal MCA (middle cerebral artery) with bilateral temporary common carotid artery occlusion in male Long-Evans rats for 90 minutes. All procedures performed on the animals are approved by the University Institutional Animal Care and Use Committee of the University of Pennsylvania. A total of 42 rats (weights: 230–340 g) obtained from Charles River were used in this study. The animals fasted overnight with free access to water prior to the surgical procedure.
Two hours prior to MCA occlusion, varying amounts (control, n=14; 5 mg/kg, n=7; 10 mg/kg, n=7; 20 mg/kg, n=7; and 40 mg/kg, n=7) of the compound, 3,4-dihydro-5-[4-(1-piperidinyl)-butoxy]-1(2H)-isoquinolinone (“DPQ”) were dissolved in dimethyl sulfoxide (DMSO) using a sonicator. A volume of 1.28 ml/kg of the resulting solution was injected intraperitoneally into […].
Focal cerebral ischemia was produced by cauterization of the distal portion of the right MCA with bilateral temporary common carotid artery (CCA) occlusion by the procedure of Chen et al., “A Model of Focal Ischemic Stroke in the Rat: Reproducible Extensive Cortical Infarction”, Stroke 17:738–43 (1986) and/or Liu et al., “Polyethylene Glycol-conjugated Superoxide Dismutase and Catalase Reduce Ischemic Brain Injury”, Am. J. Physiol. 256:H589–93 (1989), both of which are hereby incorporated by reference.
Specifically, bilateral CCA's were isolated, and loops made from polyethylene (PE-10) catheter were carefully passed around the CCA's for later remote occlusion. The incision made previously for placement of the laser doppler probe was extended to allow observation of the rostral end of the zygomatic arch at the fusion point using a dental drill, and the dura mater overlying the MCA was cut. […] The burr hole was covered with a small piece of Gelform, and the wound was sutured to maintain the brain temperature within the normal or near-normal range.
After 90 minutes of occlusion, the carotid loops were released, the tail arterial catheter was removed, and all of the wounds were sutured. Gentamicin sulfate (10 mg/ml) was topically applied to the wounds to prevent infection. […]
Two hours after MCA occlusion, the animals were given the same doses of the PARP inhibitor as in the pre-treatment. […] To avoid artifacts due to edema, the damaged area was calculated by subtracting the area of the normal tissue in the hemisphere ipsilateral to the stroke from the area of the hemisphere contralateral to the stroke, by the method of Swanson et al., “A Semiautomated Method for Measuring Brain Infarct Volume”, J. Cereb. […] The total volume of infarction was calculated by summation of the damaged volume of the brain slices.

T1 sequence (P09874 whole entry): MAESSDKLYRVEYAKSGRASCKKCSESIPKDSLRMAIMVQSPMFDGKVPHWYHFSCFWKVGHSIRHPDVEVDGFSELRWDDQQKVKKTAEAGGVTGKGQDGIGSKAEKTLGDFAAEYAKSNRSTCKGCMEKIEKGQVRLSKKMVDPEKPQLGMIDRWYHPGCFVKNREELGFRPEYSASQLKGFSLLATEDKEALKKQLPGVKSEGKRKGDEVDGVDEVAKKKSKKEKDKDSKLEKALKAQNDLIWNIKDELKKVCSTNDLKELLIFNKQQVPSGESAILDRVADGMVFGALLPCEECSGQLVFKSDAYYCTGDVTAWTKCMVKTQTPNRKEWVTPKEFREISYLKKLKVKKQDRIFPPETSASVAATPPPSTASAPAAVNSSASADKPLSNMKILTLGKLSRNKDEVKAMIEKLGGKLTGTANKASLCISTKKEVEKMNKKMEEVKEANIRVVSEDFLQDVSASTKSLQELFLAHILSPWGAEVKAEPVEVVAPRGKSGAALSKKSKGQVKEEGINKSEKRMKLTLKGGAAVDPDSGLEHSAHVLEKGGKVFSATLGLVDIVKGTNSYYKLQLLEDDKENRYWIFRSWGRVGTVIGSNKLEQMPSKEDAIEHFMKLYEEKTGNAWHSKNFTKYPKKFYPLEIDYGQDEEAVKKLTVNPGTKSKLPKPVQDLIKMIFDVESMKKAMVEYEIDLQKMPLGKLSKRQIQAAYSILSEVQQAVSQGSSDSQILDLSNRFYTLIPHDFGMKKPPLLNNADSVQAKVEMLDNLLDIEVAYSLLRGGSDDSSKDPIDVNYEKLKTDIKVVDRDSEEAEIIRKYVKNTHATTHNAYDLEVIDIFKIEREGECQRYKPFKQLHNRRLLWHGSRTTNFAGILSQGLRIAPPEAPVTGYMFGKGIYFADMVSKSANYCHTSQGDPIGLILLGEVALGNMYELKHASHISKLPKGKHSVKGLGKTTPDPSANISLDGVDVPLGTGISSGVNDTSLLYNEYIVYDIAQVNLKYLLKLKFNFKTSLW
Chain of PARP (P09874 whole entry): as above

| SMILES | IC50 ([1]; read-out: IC50) [µM] | further results |
| --- | --- | --- |
| O=C1NN=Cc2cn(Cc3ccccc3)c3cccc1c23 | 13 |  |
| O=C1NN=C(Cc2ccccc2)c2c[nH]c3cccc1c23 | 0.064 |  |
| O=C1NCC(c2ccc(F)cc2)c2c[nH]c3cccc1c23 (stereo not drawn) | 0.427 |  |
| Nc1ccc(C2CNC(=O)c3cccc4[nH]cc2c34)cc1 (stereo not drawn) | 0.172 |  |
| O=C1NCC(c2ccccc2)c2c[nH]c3cccc1c23 (stereo not drawn) | 0.176 |  |
| O=C1CNC(=O)c2cccc3[nH]cc1c23 | 0.035 |  |
| Cn1cc2c3c(cccc31)C(=O)NCC2=O | 0.028 |  |
| Cn1c(-c2ccccc2)c2c3c(cccc31)C(=O)NCC2=O | 0.058 |  |
| Cn1cc2c3c(cccc31)C(=O)NCC2O (stereo not drawn) | 0.79 |  |
| COC1CNC(=O)c2cccc3c2c1cn3C (stereo not drawn) | 4.6 |  |
| O=C1NC=Cc2c[nH]c3cccc1c23 | 0.161 |  |
| O=C1NC=C(Br)c2c[nH]c3cccc1c23 | 0.061 |  |
| Cc1cccc(-c2nc3cccc4c3n2CCNC4=O)c1 | 0.097 |  |
| Cc1ccc(-c2nc3cccc4c3n2CCNC4=O)cc1 | 0.11 |  |
| O=C1NCCn2c(C3CCCCC3)nc3cccc1c32 | 0.204 |  |
| O=C1NCCn2c(-c3ccc4ccccc4c3)nc3cccc1c32 | 0.032 |  |
| O=C1NCCn2c(-c3ccc(Br)cc3)nc3cccc1c32 | 0.054 |  |
| O=C1NCCn2c(-c3ccc(F)cc3)nc3cccc1c32 | 0.201 |  |
| O=C1NCCn2c(O)nc3cccc1c32 | 1.4 |  |
| Oc1cccc2c(O)nccc12 [1,5-dihydroxyisoquinoline] |  | reduction in infarct size ([2]; 1 mg/kg): 38–48% |
| O=C1N=Cc2cccc3c2C1c1ccccc1O3 (stereo not drawn) [1,11b-dihydrobenzopyrano[4,3,2-de]isoquinolin-1-one] |  | inhibition of cell influx vs. the vehicle group ([3]; 45 mg/kg i.p., 6 h): 55%; Neutrophil Numbers (single mice) ([3]; group C, 45 mg/kg i.p. 1 h prior to 3 mg MSU crystals, 6 h time-point, one value per mouse, 45 mg/kg): 2.4 10^6 per mouse (2×) and 3.0 10^6 per mouse (2×) and 2.7 10^6 per mouse and 2.1 10^6 per mouse (2×) and 5.1 10^6 per mouse; Neutrophils (10^6 per mouse) ([3]; group C, 45 mg/kg i.p., MSU crystals (3 mg), 6 h, mean ± S.E. of (n) mice, vehicle 6.30 ± 0.33): 2.85 ± 0.34 (8)* 10^6 per mouse |
| O=C1NCCc2c(OCCCCN3CCCCC3)cccc21 [3,4-dihydro-5-[4-(1-piperidinyl)butoxy]-1(2H)-isoquinolinone] |  | IC50 (PARP): 40 nM |
| NC(=O)c1cccc(N)c1 [3-amino-benzamide] |  | reduction in infarct size in the heart ([2]; single injection 10 mg/kg, one minute before occlusion or before reperfusion): 32–42% |
| O=C1NCCc2c(OCCCCN3CCCCC3)cccc21 [DPQ, 3,4-dihydro-5-[4-(1-piperidinyl)-butoxy]-1(2H)-isoquinolinone] |  | damaged volume (infarct volume) (focal cerebral ischemia; 5 mg/kg i.p. 2 h before and 2 h after MCA occlusion, control 165.2±34.0): 106.7±23.2 mm^3; damaged volume (infarct volume) (focal cerebral ischemia; 10 mg/kg i.p. 2 h before and 2 h after MCA occlusion, control 165.2±34.0): 76.4±16.8 mm^3; damaged volume (infarct volume) (focal cerebral ischemia; 20 mg/kg i.p. 2 h before and 2 h after MCA occlusion, control 165.2±34.0): 110.2±42.0 mm^3; damaged volume (infarct volume) (focal cerebral ischemia; 40 mg/kg i.p. 2 h before and 2 h after MCA occlusion, not significant vs control): 135.6±44.8 mm^3 |
| O=C1NN=C(CN2CCN(c3ccccn3)CC2)c2c[nH]c3cccc1c23 [drawing 105] | 0.025 |  |
| O=C1NN=C(CN2CCN(c3ccccn3)CC2)c2c[nH]c3cccc1c23 [drawing 106] | 0.037 |  |
| CN(Cc1ccccc1)Cc1nc2cccc3c2n1CCNC3=O [drawing 162] |  | IC50 ([1]; IC50 (μM)): 0.088 µM |
| CN(Cc1ccccc1)Cc1nc2cccc3c2n1CCNC3=O [drawing 179] |  | IC50 ([1]; IC50 (μM)): 0.166 µM |
